Source: publication PMC12235220, “Cell‐Penetrating Peptide‐Based Triple Nanocomplex Enables Efficient Nuclear Gene Delivery in Chlamydomonas reinhardtii” (Biotechnology and Bioengineering, 2025)

Test system: C. reinhardtii cells
Assay: Cellular uptake mechanism of triple nanocomplexes with the endocytosis inhibitor wortmannin
Format: cell-based, Chlamydomonas reinhardtii
Conditions: wortmannin 33 µM pretreatment 1 h, then pVEC-R6A/Cy3-labeled DNA/SV40 nanocomplex 1 h at 25°C; control TAP with 5% DMSO; microplate reader
Procedure: To evaluate the cellular uptake mechanism of the triple nanocomplexes in microalgae, a fluorescence‐based assay was performed with wortmannin (Sigma‐Aldrich, USA) to determine the potential involvement of endocytosis in the process. A volume of 100 µL of C. reinhardtii cells (1.5 × 10^7 cells mL^−1) per well was seeded in a 96‐well plate with wortmannin at a final concentration of 33 µM. Cells treated with TAP medium containing 5% dimethyl sulfoxide were used as controls. […] Finally, the Cy3 fluorescence intensity of the samples was measured at 532 nm using a TECAN microplate reader (Bionics, Korea).

Q: With `COC[C@H]1OC(=O)c2coc3c2[C@@]1(C)C1=C(C3=O)[C@@H]2CCC(=O)[C@@]2(C)C[C@H]1OC(C)=O` [wortmannin] as the compound, how does the “Reduction of normalized Cy3/chlorophyll a level compared to control” value read?
A: 50%
